Literature values, collected in article PMC3954986 (Chemmedchem, 2013).
pIC50: −log10 of the molar value.

System: PLpro
Details: cited from earlier work

Row | Compound | pIC50
1 | Sc1ncnc2nc[nH]c12 [Inhibitor 6MP, 6‐mercaptopurine] | 4.70 to 5.30
2 | Nc1nc2nc[nH]c2c(=S)[nH]1 [Inhibitor 6TG, 6‐thioguanine] | 4.70 to 5.30
